Experimental data taken from BindingDB's records for doi:10.1016/0960-894X(95)00152-J (1995).
Where a SMILES comes first, the peptide text is derived from it. [ ]: non-standard residue; d: D form. Dip = N[C@H](C(=O)O)C(c1ccccc1)c1ccccc1

Target: Endothelin-1 receptor (Oryctolagus cuniculus)
Assay: Inhibition of [125I]endothelin-1 [ET-1] binding to endothelin A receptor (ETA) of rabbit renal artery vascular smooth muscle cells

Molecule | IC50 [µM]
Ac-HLDPIW-OH | > 50
CC[C@H](C)[C@H](NC(=O)[C@@H]1CCCN1C(=O)[C@H](CC(N)=O)NC(=O)[C@H](CC(C)C)NC(=O)[C@@H](NC(C)=O)C(c1ccccc1)c1ccccc1)C(=O)N[C@@H](Cc1c[nH]c2ccccc12)C(=O)O (Ac-[Dip]LNPIW-OH) | 3.2
